{"source": "patent US12214009B2", "about": "“Compositions and methods for improving bruising and rejuvenating skin” (Alastin Skincare, Inc., priority 2019, dated 2025)", "key": {"[1]": {"system": "dermal and epidermal hyaluronic acid level", "settings": "ex vivo human skin model; cited from earlier work"}, "[2]": {"assay": "Penetration ability log Kow", "format": "physicochemical", "description": "A water suspension of liposomes was prepared with 1.5% of hydrophilic molecule A or 300 ppm (0.03%) hydrophilic molecule B, and 27% Pro-Lipo™ Neo. […] Molecule B was a hexapeptide (hexapeptide-38) with a molecular weight of (870 g/mol) and a penetration ability log Kow of −1.13. A water solution with 1.5% A or 300 ppm B was used as a control (non-entrapped molecule)."}, "[3]": {"system": "macrophages (RAW-Difluo mLC3 autophagy reporter cells) phagocytosing human red blood cells", "assay": "Macrophage phagocytosis of red blood cells (heme absorbance)", "format": "cell-based", "settings": "FIG. 6; 24 h; peptide alone; tripeptide-1 2.9 ug/mL, hexapeptide-11 100 ug/mL, hexapeptide-12 2.9 ug/mL", "description": "The assay was performed according to manufacturer's instructions (Cell BioLabs, Inc.). Macrophages used were RAW-Difluo mLC3 autophagy reporter cells. Human red blood cells (RBCs) were obtained from ZenBio (catalog number SER-10MLRBC). Briefly, 24 hours before the assay, macrophages were plated on 96-well plates. One plate was plated with 12,500 macrophages and a second plate with 25,000 macrophages. The day of the assay, human red blood cells (RBCs) were opsonized with human RBC antibody. As a negative control, sheep RBCs were opsonized with human RBC antibody. The media was then replaced with either peptide or no peptide. Blood was added to the plates at a 200:1 RBC to macrophage ratio. Phagocytosis was measured beginning at 2 hours after blood was added. The media and blood were removed from the wells of the plate. The plate was washed once with RBC lysis buffer to remove non-phagocytosed RBCs followed by two washes with PBS. Macrophage lysis buffer was then added to the plate and the lysed solution was transferred to a 96-well plate. The substrate solution to detect heme was added to the 96-well plate and absorbance was recorded at 1 minute, 5 minutes, 10, minutes, and 20 minutes. FIGS. 1B-1C show images of macrophage phagocytosis prior to red blood cell (RBC) washout (FIG. 1B) and after RBC washout (FIG. 1C). Arrows indicate macrophages with RBCs (hollow circles). […]"}}, "data": [{"compound": "CCCCCCCC(=O)CCc1ccc(O)c(OC)c1", "note": "[Hydroxymethoxyphenyl decanone]", "values": [{"measurement": "stimulation of dermal hyaluronic acid level versus placebo", "setting": "[1]", "result": 259, "unit": "%"}, {"measurement": "stimulation of epidermal hyaluronic acid level versus placebo", "setting": "[1]", "result": 198, "unit": "%"}]}, {"compound": "Cn1c(=O)c2c(ncn2C)n(C)c1=O", "note": "[Molecule A, caffeine]", "values": [{"measurement": "penetration ability log Kow", "setting": "[2]", "result": "−0.07"}]}, {"compound": "hexapeptide-11", "values": [{"measurement": "phagocytosis relative to NT control", "setting": "[3]", "result": "decrease or no change"}]}, {"compound": "tripeptide-1", "values": [{"measurement": "phagocytosis relative to NT control", "setting": "[3]", "result": "decrease or no change"}]}]}
